Source: article PMC7802075 (ACS Infectious Diseases, 2020)

The compounds below were run against T1, LmjIPCS (inositol phosphorylceramide synthase from L. major) (Leishmania major, UniProt E9AFX2) (assay: biochemical). Conditions: not given.
T1 sequence (E9AFX2 1-338): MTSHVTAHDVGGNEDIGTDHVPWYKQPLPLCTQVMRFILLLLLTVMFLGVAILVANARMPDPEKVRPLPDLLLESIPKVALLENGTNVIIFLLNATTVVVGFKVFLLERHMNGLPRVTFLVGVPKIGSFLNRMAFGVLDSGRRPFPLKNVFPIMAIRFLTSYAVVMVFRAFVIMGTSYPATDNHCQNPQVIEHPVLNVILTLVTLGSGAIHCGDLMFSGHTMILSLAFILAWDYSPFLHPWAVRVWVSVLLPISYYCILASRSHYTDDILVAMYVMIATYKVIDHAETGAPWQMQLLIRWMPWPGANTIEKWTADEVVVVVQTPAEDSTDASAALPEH
Type: biochemical
Design: inhibition: dose or concentration left out as unconfirmed

Going from `CCN(CC)Cc1cc(Nc2ccnc3cc(Cl)ccc23)ccc1O` [AMODIAQUINE] to `NC(CO)C(=O)NNCc1ccc(O)c(O)c1O` (stereo not drawn) [BENSERAZIDE], the “20mM inhibition LmjIPCS” value falls from 59% to 43%.

First: CNCCCN1c2ccccc2CCc2ccccc21 [DESIPRAMINE]
Second: CC1=NN(c2ccccc2)C(=O)C1 [3-METHYL-1-PHENYL-2-PYRAZOLIN-5-ONE]
The “20mM inhibition LmjIPCS” value of the first is higher: 64% for the first, 4.33% for the second.

First: CCCNC(C)C(=O)Nc1ccccc1C (stereo not drawn) [PRILOCAINE]
Second: CON [METHOXYAMINE]
The “20mM inhibition LmjIPCS” value of the first is higher: 34% for the first, 12% for the second.

Compared with `CC(=O)O.CNC(=N)NCCC[C@H](N)C(=O)O` [Ng-METHYL-L-ARGININE ACETATE], DEGUELIN(-) is higher in “20mM inhibition LmjIPCS” value: 0.168% for the first, 51% for the second.

First: CN(C)[C@@H]1C(O)=C(C(N)=O)C(=O)[C@@]2(O)C(O)=C3C(=O)c4c(O)cccc4[C@@](C)(O)[C@H]3C[C@@H]12 [TETRACYCLINE]
Second: CCN(CCCCOC(=O)c1ccc(OC)c(OC)c1)C(C)Cc1ccc(OC)cc1 (stereo not drawn) [MEBEVERINE]
The “20mM inhibition LmjIPCS” value of the first is lower: 36% for the first, 54% for the second.

First: CN1CCC(=C2c3ccccc3CC(=O)c3sccc32)CC1 [KETOTIFEN]
Second: CCOC(=O)C1=C(C)NC(C)=C(C(=O)OC)C1c1cccc([N+](=O)[O-])c1 (stereo not drawn) [NITRENDIPINE]
The “20mM inhibition LmjIPCS” value of the first is lower: 36% for the first, 39% for the second.

`NCC(O)CC(=O)O` (stereo not drawn) [AMINOHYDROXYBUTYRIC ACID] was tested, and the “20mM inhibition LmjIPCS” value was 4%.

Same assay, conditions: NINDS set screen, single concentration printed as 20mM

Compared with `CCN(CC)CCOC(=O)C(c1ccccc1)c1ccccc1` [ADIPHENINE], `CCOC(=O)C1=C[C@]2(CC)CCCN3CCc4c(n1c1ccccc41)[C@@H]32` [VINPOCETINE] is lower in “20mM inhibition LmjIPCS” value: 51% for the first, 36% for the second.

Compared with `O=C1NCC2(CCN(CCc3ccccc3)CC2)O1` [FENSPIRIDE], `c1ccc2[nH]c(-c3cscn3)nc2c1` [THIABENDAZOLE] is lower in “20mM inhibition LmjIPCS” value: 47% for the first, 41% for the second.

Same assay, conditions: NINDS set screen; read-out: inhibition LmjIPCS

Compared with `CN(C)CCOC(=O)C(c1ccccc1)C1(O)CCCC1` (stereo not drawn) [CYCLOPENTOLATE], `O=C1c2ccccc2C(=O)C1c1ccccc1` [PHENINDIONE] is higher in inhibition: 16% for the first, 21% for the second.

Going from `COc1cc2cc3c4cc(OC)c(OC)cc4cc[n+]3c(C)c2cc1OC` [CORALYNE] to `Cn1c(=O)[nH]c2ncn(C)c2c1=O` [PARAXANTHINE], the inhibition falls from -5% to -5.66%.

Same assay, conditions: read-out: 20mM inhibition LmjIPCS

First: CC(=O)N[C@@H](CCC(=O)O)C(=O)O [ACET[…]]
Second: C=C(C)[C@H]1CN[C@H](C(=O)O)[C@H]1CC(=O)O [KAINIC ACID]
The inhibition at 20000 µM of the first is lower: -20% for the first, 14% for the second.

Going from `NNCCc1ccccc1` [PHENELZINE] to `O=C(O)CCNC(=O)c1ccccc1` [BETAMIPRON], the inhibition at 20000 µM falls from 27% to -3.5%.

Compared with `C[C@H]1C(=O)O[C@@H]2CCN3CC=C(COC(=O)[C@](C)(O)[C@]1(C)O)[C@H]23` [MONOCROTALINE], `CC1(C)O[C@@H]2C[C@H]3[C@@H]4CCC5=CC(=O)CC[C@]5(C)[C@@]4(F)[C@@H](O)C[C@]3(C)[C@]2(C(=O)CCl)O1` [HALCINONIDE] is higher in inhibition at 20000 µM: 2% for the first, 20% for the second.

Compared with `c1ccc([C@H]2CN3CCSC3=N2)cc1` [LEVAMISOLE], `OCC(O)CN1CCN(c2ccccc2)CC1` (stereo not drawn) [DROPROPIZINE] is higher in inhibition at 20000 µM: 2.52% for the first, 18% for the second.

First: CC1(C)O[C@@H]2C[C@H]3[C@@H]4C[C@H](F)C5=CC(=O)C=C[C@]5(C)[C@H]4[C@@H](O)C[C@]3(C)[C@]2(C(=O)CO)O1 [FLUNISOLIDE]
Second: CC1(C)O[C@@H]2C[C@H]3[C@@H]4C[C@H](F)C5=CC(=O)CC[C@]5(C)[C@H]4[C@@H](O)C[C@]3(C)[C@]2(C(=O)CO)O1 [FLURANDRENOLIDE]
The inhibition at 20000 µM of the first is higher: -10% for the first, -15% for the second.

Going from `O=C1C[C@@H]2OCC=C3CN4CC[C@]56c7ccccc7N1[C@H]5[C@H]2[C@H]3C[C@H]46` [STRYCHNINE] to `CN1[C@@H]2CC[C@H]1C[C@@H](OC(=O)C(CO)c1ccccc1)C2` (stereo partly drawn) [ATROPINE], the inhibition at 20000 µM rises from 3% to 26%.

First: CCCCCC(C)N (stereo not drawn) [TUAMINOHEPTANE]
Second: CCOC(=O)[C@H](CCc1ccccc1)N[C@@H](C)C(=O)N1CCC[C@H]1C(=O)O
The inhibition at 20000 µM of the first is higher: 26% for the first, -20% for the second.

First: C[C@]12CCC(=O)C(O)=C1CC[C@@H]1[C@@H]2CC[C@]2(C)C(=O)CC[C@@H]12 [FORMESTANE]
Second: COc1ccc(C(=O)O[C@H]2CC[C@@]3(C)[C@@H]4CC[C@H]5[C@]6(O)C[C@H](O)[C@@]7(O)[C@@H](CN8C[C@@H](C)CC[C@H]8[C@@]7(C)O)[C@]6(O)C[C@@]53O[C@]24O)cc1OC [VERATRIDINE]
The inhibition at 20000 µM of the first is higher: 18% for the first, 11% for the second.

Compared with `CC(=O)Nc1ccccc1` [ACETANILIDE], `COC(=O)[C@H](c1ccccc1Cl)N1CCc2sccc2C1` [CLOPIDOGREL] is higher in inhibition at 20000 µM: 3.75% for the first, 32% for the second.

Compared with `CC(=O)O[C@H](CC(=O)[O-])C[N+](C)(C)C` [ACETYLCARNITINE], `CC(=O)OCC(CCn1cnc2cnc(N)nc21)COC(C)=O` [FAMCICLOVIR] is higher in inhibition at 20000 µM: -17% for the first, 1.36% for the second.

First: Cc1ccnc(NS(=O)(=O)c2ccc(N)cc2)n1 [SULFAMERAZINE]
Second: COc1ccc(Cc2nccc3cc(OC)c(OC)cc23)cc1OC [PAPAVERINE]
The inhibition at 20000 µM of the first is lower: 3.51% for the first, 21% for the second.

Compared with `C[C@H]1CC[C@]2(NC1)O[C@H]1C[C@H]3[C@@H]4CC[C@H]5C[C@@H](O[C@@H]6O[C@H](CO)[C@H](O[C@@H]7O[C@H](CO)[C@@H](O)[C@H](O[C@@H]8OC[C@@H](O)[C@H](O)[C@H]8O)[C@H]7O[C@@H]7O[C@H](CO)[C@@H](O)[C@H](O)[C@H]7O)[C@H](O)[C@H]6O)CC[C@]5(C)[C@H]4CC[C@]3(C)[C@H]1[C@@H]2C` [TOMATINE], `C[C@@H]1O[C@@H](OC[C@H]2O[C@@H](Oc3c(-c4ccc(OCCO)c(OCCO)c4)oc4cc(OCCO)cc(O)c4c3=O)[C@H](O)[C@@H](O)[C@@H]2O)[C@H](O)[C@H](O)[C@H]1O` [TROXERUTIN] is higher in inhibition at 20000 µM: 12% for the first, 20% for the second.

First: CN(C)CCc1c[nH]c2ccc(CS(=O)(=O)N3CCCC3)cc12 [ALMOTRIPTAN]
Second: O=[N+]([O-])NC1=NCCN1Cc1ccc(Cl)nc1 [IMIDACLOPRID]
The inhibition at 20000 µM of the first is lower: 5% for the first, 8% for the second.

Compared with `CC1(C)NC(=O)N(c2ccc([N+](=O)[O-])c(C(F)(F)F)c2)C1=O` [NILUTAMIDE], `Cn1c(=O)[nH]c(=O)c2[nH]cnc21` [3-METHYLXANTHINE] is higher in inhibition at 20000 µM: 4% for the first, 12% for the second.

First: CCN(CC)CC(=O)Nc1c(C)cccc1C [LIDOCAINE]
Second: CC[N+](C)(C)c1cccc(O)c1 [EDROPHONIUM]
The inhibition at 20000 µM of the first is lower: 2.47% for the first, 12% for the second.

First: CO[C@H]1C[C@H](O[C@H]2[C@H](C)[C@@H](O[C@@H]3O[C@H](C)C[C@H](N(C)C)[C@H]3O)[C@@H](C)C[C@@]3(CO3)C(=O)[C@H](C)[C@@H](O)[C@@H](C)[C@@H](C)OC(=O)[C@@H]2C)O[C@@H](C)[C@@H]1O [OLEANDOMYCIN]
Second: CO[C@H]1/C=C/O[C@@]2(C)Oc3c(C)c(O)c4c(O)c(c(/C=N/N5CCN(C)CC5)c(O)c4c3C2=O)NC(=O)/C(C)=C\C=C\[C@H](C)[C@H](O)[C@@H](C)[C@@H](O)[C@@H](C)[C@H](OC(C)=O)[C@@H]1C [RIFAMPIN]
The inhibition at 20000 µM of the first is lower: 1.17% for the first, 27% for the second.

First: COc1cc(C2Oc3cc([C@H]4Oc5cc(O)cc(O)c5C(=O)[C@@H]4O)ccc3OC2CO)ccc1O (stereo partly drawn) [SILIBININ]
Second: N#C[C@H](O[C@@H]1O[C@H](CO[C@@H]2O[C@H](CO)[C@@H](O)[C@H](O)[C@H]2O)[C@@H](O)[C@H](O)[C@H]1O)c1ccccc1 [AMYGDALIN]
The inhibition at 20000 µM of the first is higher: 2.14% for the first, -4% for the second.

First: Nc1nccs1 [AMINOTHIAZOLE]
Second: Nc1nc2c(ncn2COCCO)c(=O)[nH]1 [ACYCLOVIR]
The inhibition at 20000 µM of the first is lower: -32% for the first, 5% for the second.

First: CSCC[C@H](NC=O)C(=O)N[C@@H](CC(C)C)C(=O)N[C@@H](Cc1ccccc1)C(=O)O
Second: NCCc1ccc(O)c(O)c1 [DOPAMINE]
The inhibition at 20000 µM of the first is higher: 19% for the first, -1.1% for the second.

For `Oc1ccc(Cl)cc1` [PARACHLOROPHENOL], the inhibition at 20000 µM was 12%.

Same assay, conditions: read-out: inhibition LmjIPCS

Going from `COc1ccc(CN(CCN(C)C)c2ccccn2)cc1` [PYRILAMINE] to `O=C1C(CC[S+]([O-])c2ccccc2)C(=O)N(c2ccccc2)N1c1ccccc1` (stereo not drawn) [SULFINPYRAZONE], the inhibition falls from 5.27% to -6%.

Going from `O=c1[nH]c2cc(Cl)c(Cl)cc2[nH]c1=O` [2,3-DIHYDROXY-6,7-DICHLOROQUINOXALINE] to `Nc1cc(N2CCCCC2)nc(N)[n+]1[O-]` [MINOXIDIL], the inhibition rises from 4% to 15%.

First: C1CCC(C(CC2CCCCN2)C2CCCCC2)CC1 (stereo not drawn) [PERHEXILINE]
Second: C[C@@H]1O[C@@H]1P(=O)(O)O [FOSFOMYCIN]
The inhibition of the first is lower: 12% for the first, 16% for the second.

Same assay, conditions: screening of NINDS set, sheet Screen 1; read-out: inhibition LmjIPCS

First: CCCOc1ccccc1-c1nc2nn[nH]c2c(=O)[nH]1 [ZAPRINAST]
Second: O=C(O)c1cc2cc(Cl)ccc2[nH]1 [5-CHLOROINDOLE-2-CARBOXYLIC ACID]
The inhibition of the first is lower: 7% for the first, 9% for the second.

Going from `NC[C@H]1CC[C@H](C(=O)O)CC1` [TRANEXAMIC ACID] to `C1N2CN3CN1CN(C2)C3` [METHENAMINE], the inhibition rises from 2.2% to 6%.

With `C[N+]1(CCCCC[N+]2(C)CCCC2)CCCC1` [PENTOLINIUM] the inhibition was 11%.

Same assay, conditions: single concentration 20mM as printed; screening of NINDS set, sheet Screen 1

Compared with `CC(=O)[C@@]1(O)CC[C@H]2[C@@H]3C=C(Cl)C4=CC(=O)[C@@H]5C[C@@H]5[C@]4(C)[C@H]3CC[C@@]21C` [CYPROTERONE], `CC(=O)OCC(=O)[C@@]1(O)CC[C@H]2[C@@H]3C[C@H](C)C4=CC(=O)C=C[C@]4(C)[C@H]3[C@@H](O)C[C@@]21C` [6alpha-METHYLPREDNISOLONE ACETATE] is lower in “20mM inhibition LmjIPCS” value: 10% for the first, 9% for the second.

Going from `N=C(N)NC(=N)Nc1ccccc1` [1-PHENYLBIGUANIDE] to `Cc1cn([C@H]2C[C@H](N=[N+]=[N-])[C@@H](CO)O2)c(=O)[nH]c1=O` [ZIDOVUDINE [AZT]], the “20mM inhibition LmjIPCS” value falls from 11% to 7%.
